Data taken from the supplement of paper PMC8372320.

Test: photocatalytic hydrogen evolution rate (per 5 mg catalyst); higher = more photocatalytic H2 evolution; extreme values may be limits of the assay
Details: catalyst mass (mg): 5; Pt cocatalyst (wt%): 3; sacrificial medium: triethylamine/methanol/water 1:1:1
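Note: aromatic molecules in triethylamine/methanol/water with Pt photoreduced in situ, irradiated 3 h under a 1 sun AM 1.5G solar simulator (350–1000 nm), H2 quantified by headspace gas chromatography; listed molecule itself used as the photocatalyst at 5 mg per vial.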

SMILES	photocatalytic hydrogen evolution rate
CCc1cc(C#N)ccc1C#N	0 µmol/h
Oc1ccc(I)cc1	0 µmol/h
Brc1ccc(-c2ccc(Br)s2)s1	0 µmol/h
Oc1c(Br)cc(Br)cc1Br	0.0139 µmol/h
C#Cc1cnc[nH]1	0 µmol/h
N#Cc1ccccc1-c1ccccc1C#N	0 µmol/h
O=Cc1ccc(-c2ccc(C=O)s2)s1	1.18 µmol/h
O=Cc1cccc2cccnc12	1.45 µmol/h
CC1(C)c2ccccc2Oc2ccccc21	0.0132 µmol/h
O=C(O)c1ccc(N=Nc2ccccc2)cc1	0 µmol/h
CC(=O)c1ccc(CCc2ccc(C(C)=O)cc2)cc1	0.387 µmol/h
c1ccc2nsnc2c1	0 µmol/h
Nc1cc(Br)c(F)cc1Br	0 µmol/h
N#Cc1ccc(Br)c(F)c1	0 µmol/h
O=Cc1ccc(-c2ccc(-c3ccc(C=O)s3)s2)s1	1.6 µmol/h
CC(=O)c1ccc([N+](=O)[O-])cc1	0 µmol/h
O=Cc1ccc(N(c2ccc(C=O)cc2)c2ccc(C=O)cc2)cc1	1.46 µmol/h
N#Cc1cc(C#N)c(C#N)cc1C#N	0 µmol/h
O=Cc1cccc(O)c1	0 µmol/h
N#Cc1c(O)[nH]c(=O)c(C#N)c1-c1ccccc1	0 µmol/h
O=Cc1cc(O)c(C=O)cc1O	0 µmol/h
COC(=O)c1ccc2cc(Br)ccc2c1	0 µmol/h
N#Cc1cc(C#N)ncn1	0 µmol/h
N#Cc1cc(Br)c(N)c(Br)c1	0 µmol/h
Brc1ccc(-c2cc(-c3ccc(Br)cc3)cc(-c3ccc(Br)cc3)c2)cc1	0 µmol/h
Brc1ccc2cc(Br)ccc2c1	0 µmol/h

SMILES	photocatalytic hydrogen evolution rate
c1cnc2c(c1)ccc1cccnc12	0.478 µmol/h
OC(c1ccccc1)c1ccccc1	0 µmol/h
O=Cc1ccc(O)cc1	0.00783 µmol/h
N#Cc1ccc(C=O)nc1	0.139 µmol/h
N#Cc1c[nH]c2ccc(Br)cc12	0.015 µmol/h
c1ccc(-c2ccc(-c3ccc(-c4ccccc4)cc3)cc2)cc1	0 µmol/h
N#Cc1cc(N)ccn1	0 µmol/h
Brc1cc(Br)c2[nH]c3c(Br)cc(Br)cc3c2c1	0.128 µmol/h
COC(=O)c1ccc(-c2ccc(Br)cc2)cc1	0.0357 µmol/h
N#Cc1nc(N)c(N)nc1C#N	0 µmol/h
c1ccc2cc3ccccc3cc2c1	0 µmol/h
O=S1(=O)c2ccc(Br)cc2-c2cc(Br)ccc21	0.009 µmol/h
c1cc2ccc3ccc4ccc5ccc6ccc1c1c2c3c4c5c61	0 µmol/h
O=C(c1ccccc1)c1ccncc1	2.41 µmol/h
BrCc1cc(Br)cc(Br)c1	0 µmol/h
O=Cc1ccccc1C=O	0.491 µmol/h
Nc1c(Br)cnc(Br)c1N	0 µmol/h
O=c1c2ccccc2oc2ccccc12	7.48 µmol/h
Cc1ccc(N)cc1C#N	0 µmol/h
O=Cc1ccc2nsnc2c1	0 µmol/h
c1cc(-c2cn[nH]c2)ccc1-c1cn[nH]c1	0 µmol/h
Cc1c(C2(c3cc(Br)c(O)c(Br)c3C)OS(=O)(=O)c3ccccc32)cc(Br)c(O)c1Br	0 µmol/h
N#CCC(=O)c1ccc(Br)cc1	0 µmol/h
c1ccc2c(c1)[nH]c1ccccc12	0 µmol/h
NC(=O)c1ccc(B(O)O)cc1	0 µmol/h
Brc1cnc2c(ccc3cc(Br)cnc32)c1	0.655 µmol/h

SMILES	photocatalytic hydrogen evolution rate
OC(c1ccccc1)(c1ccccc1)c1ccccc1	0 µmol/h
O=C(O)c1ccc(-c2ccc(-c3ccc(C(=O)O)cc3)cc2)cc1	1.84 µmol/h
N#CCc1nc2ccccc2s1	0 µmol/h
N#Cc1cccnc1Br	0 µmol/h
Cc1cccc(N(c2ccc(C=O)cc2)c2cccc(C)c2)c1	0.245 µmol/h
Brc1ccc2ccc3cccc4ccc1c2c34	0.369 µmol/h
O=Cc1cncnc1	0.0364 µmol/h
O=Cc1ccc(Oc2ccc(C=O)cc2)cc1	2.42 µmol/h
BrCc1ccc(-c2ccc(CBr)cc2)cc1	0 µmol/h
N#Cc1cc(Br)ccn1	0 µmol/h
O=C(c1ccccc1)c1ccccc1	3.25 µmol/h
O=C(O)c1cc(C(=O)O)cc(-c2ccc(-c3cc(C(=O)O)cc(C(=O)O)c3)cc2)c1	0.0522 µmol/h
Brc1ccc(Br)c2nsnc12	1.29 µmol/h
c1cc2cccc3c4cccc5cccc(c(c1)c23)c54	1.25 µmol/h
N#Cc1c2ccccc2cc2ccccc12	0.294 µmol/h
O=Cc1ccc(N2CCS(=O)(=O)CC2)cc1	2.73 µmol/h
Brc1ccc2[nH]c3ccc(Br)cc3c2c1	0 µmol/h
O=Cc1ccc(N2CCCCC2)cc1	0.431 µmol/h
N#Cc1ccc(F)cc1	0 µmol/h
O=C(C(=O)c1ccc(C(=O)C(=O)c2ccccc2)cc1)c1ccccc1	0.00597 µmol/h
O=C(O)Cc1ccccc1	0.0603 µmol/h
O=Cc1ccc(B(O)O)cc1	0.0401 µmol/h
COc1cc(C=O)c(OC)cc1C=O	1.37 µmol/h
O=Cc1ccc(O)c(O)c1O	0 µmol/h
N#Cc1cnc(Br)cn1	0.721 µmol/h
O=C1c2ccccc2C(=O)c2ccccc21	0 µmol/h

SMILES	photocatalytic hydrogen evolution rate
Nc1cc(Br)ccc1-c1ccc(Br)cc1N	0.0732 µmol/h
Oc1c(Br)cc(Br)c(O)c1Br	0 µmol/h
CN(C)c1ccc(C=O)cc1	0.34 µmol/h
CC(=O)c1ccc(C#N)cc1	5.7 µmol/h
c1ccc(-c2nc(-c3ccccc3)nc(-c3ccc(-c4ccc(-c5nc(-c6ccccc6)nc(-c6ccccc6)n5)cc4)cc3)n2)cc1	0 µmol/h
c1ccc(-c2cc(-c3ccccc3)nc(-c3ccccc3)c2)cc1	0 µmol/h
O=C1c2ccccc2C(=O)C1(O)O	0 µmol/h
O=C1C=CC(=O)c2c(O)cccc21	0 µmol/h
CC(C)(O)c1ccc(C(C)(C)O)cc1	0.00118 µmol/h
Fc1cc(Br)c2nsnc2c1Br	0.241 µmol/h
N#Cc1nc2c3nc(C#N)c(C#N)nc3c3nc(C#N)c(C#N)nc3c2nc1C#N	0 µmol/h
Cc1[nH]c(C=O)cc1C#N	0 µmol/h
O=Cc1ccc(-n2ccnc2)cc1	1.5 µmol/h
O=Cc1sc(C=O)c(Br)c1Br	0.167 µmol/h
c1ccc(-c2ccccn2)nc1	0 µmol/h
O=C(O)c1cc(Br)c(C(=O)O)cc1Br	0 µmol/h
Brc1ccc(-c2ccc(Br)cn2)nc1	0.0242 µmol/h
N#Cc1cc(F)c(F)c(F)c1F	0 µmol/h
O=C1C(c2ccccc2)=C(c2ccccc2)C(c2ccccc2)=C1c1ccccc1	0.0996 µmol/h
N#Cc1ccc(F)c(N)c1	0 µmol/h
N#Cc1cccc(Br)n1	0 µmol/h
CC(=O)c1ccc(C(C)=O)cc1	5.52 µmol/h
Cc1cc(-c2cc(C)c(N)c(C)c2)cc(C)c1N	0 µmol/h
N#Cc1cnccc1Br	0.0501 µmol/h
N#CC(C#N)=C1CC(=C(C#N)C#N)c2ccccc21	0 µmol/h
CCCCCCCCC1(CCCCCCCC)c2cc(B3OC(C)(C)C(C)(C)O3)ccc2-c2ccc(B3OC(C)(C)C(C)(C)O3)cc21	0.0342 µmol/h

SMILES	photocatalytic hydrogen evolution rate
O=C1OC2(c3cc(Cl)c(O)cc3Oc3cc(O)c(Cl)cc32)c2ccccc21	25.2 µmol/h
N#Cc1cncc(Br)n1	0.0873 µmol/h
Cc1ccc(C(=O)c2ccccc2)cc1	3.44 µmol/h
N#Cc1ccc(C=O)cn1	0 µmol/h
Brc1ccc2c(c1)oc1cc(Br)ccc12	0 µmol/h
O=Cc1c2ccccc2c(C=O)c2ccccc12	2.97 µmol/h
O=C(O)c1ccc(-c2cc(-c3ccc(C(=O)O)cc3)c(-c3ccc(C(=O)O)cc3)cc2-c2ccc(C(=O)O)cc2)cc1	0.052 µmol/h
CC(O)c1ccc2ccccc2c1 (centres undefined)	0 µmol/h
c1ccc(-c2nc3ccccc3[nH]2)cc1	0 µmol/h
Cc1cc(C=O)cc(C)c1O	0.0076 µmol/h
ClCc1c2ccccc2c(CCl)c2ccccc12	0 µmol/h
O=C(O)c1cc(C(=O)O)cc(-c2cc(C(=O)O)cc(C(=O)O)c2)c1	0 µmol/h
OCc1cccc2cc3cccc(CO)c3cc12	0.00242 µmol/h
N#Cc1cccc(-c2cccc(C=O)c2)c1	1.09 µmol/h
C#Cc1ccc(C(=O)O)cc1	0 µmol/h
N#Cc1c(F)c(F)c(F)c(F)c1C#N	4.24 µmol/h
O=Cc1cc(O)cc(Cl)c1	0.000189 µmol/h
Brc1ccc2ccccc2c1	0.0179 µmol/h
N#Cc1cc(N)ccc1Cl	0 µmol/h
COC(=O)c1ccc2cc(B3OC(C)(C)C(C)(C)O3)ccc2c1	1.49 µmol/h
C=Cc1ccc2c(=C(C#N)C#N)c3ccccc3c(=C(C#N)C#N)c2c1	0 µmol/h
O=Cc1cccc(C=O)c1	1.65 µmol/h
N#Cc1ccc(-c2ccc(C#N)nc2)cn1	0.0601 µmol/h
N#Cc1c(F)cc(F)cc1F	0.0527 µmol/h
O=Cc1ccc(C=O)cc1	0.0145 µmol/h
